The source made the active and inactive calls. The rule behind the calls is not given here.

Data set [1] can be described thus: Cytotoxicity against HAF cells assessed as reduction in cell viability measured after 48 hrs by MTS assay. The conditions noted are these: Homo sapiens. It is filed as cell-based.
Data set [2] relates to PANC-1. The data set is described as follows: Antimigratory activity against human PANC1 cells measured after 18 hrs in presence of mitomycin C using crystal violet staining by inverted microscopy-based transwell assay. It is filed as functional, cell-based.
In data set [3] the test system is PANC-1. The data set is described as follows: Antimetastatic activity against human PANC1 cells harboring luciferase reporter gene xenografted in Balb/c nude mouse assessed as mouse survival at 50 mg/kg/day, ip (reference value: 25%). Format: functional. The conditions noted are these: PANC-1, ip.
Data set [4] has as its system PANC-1. Put plainly: Antimetastatic activity against human PANC1 cells harboring luciferase reporter gene xenografted in Balb/c nude mouse assessed as reduction in lung metastasis burden by measuring reduction in luminescence at 50 mg/kg/day, ip measured every 10 days by bioluminescence imaging analysis relative to control. It is filed as functional.
Data set [5] in a line: Toxicity in Balb/c nude mouse xenografted with PANC1 cells assessed as body weight loss at 25 to 50 mg/kg/day, ip. Format: organism-based. Particulars: in vivo.
Data set [6] in a line: Cytotoxicity against human HPDE6c7 cells assessed as reduction in cell viability measured after 48 hrs by MTS assay. Format: cell-based. The conditions noted are these: HPDE6c7, 48 h.
Data set [7] concerns the target Vascular endothelial growth factor receptor 2 (Homo sapiens) (UniProt P35968). The data set is described as follows: Effect on VEGFR2 phosphorylation in MYOF-knockout human PANC1 cells up to 400 nM by Western blot analysis.
The subject of a further data set is Capan-2. Put plainly: Cytotoxicity against human Capan2 cells assessed as reduction in cell viability measured after 48 hrs by MTS assay. It is filed as cell-based. Particulars: Capan-2, 48 h.
Data set [8] deals with PANC-1. Put plainly: Effect on E-cadherin expression in MYOF-knockout human PANC1 cells up to 400 nM by Western blot analysis. It is filed as functional, cell-based.
Another data set relates to MIA PaCa-2. The data set is described as follows: Antimigratory activity against human MIAPaCa2 cells measured after 24 hrs in presence of mitomycin C using crystal violet staining by inverted microscopy-based transwell assay. Format: functional, cell-based.
Data set [9] deals with PANC-1. Put plainly: Effect on fibronectin expression in MYOF-knockout human PANC1 cells up to 400 nM by Western blot analysis. Format: functional, cell-based.
Data set [10] has as its system PANC-1. The data set is described as follows: Antimetastatic activity against human PANC1 cells harboring luciferase reporter gene xenografted in Balb/c nude mouse assessed as reduction in lung metastasis burden by measuring reduction in luminescence at 25 mg/kg/day, ip measured every 10 days by bioluminescence imaging analysis relative to control. It is filed as functional.

Data set [11] in a line: Toxicity in Balb/c nude mouse xenografted with PANC1 cells assessed as pathological changes in lung at 25 to 50 mg/kg/day, ip by H and E staining-based microscopic analysis. It is filed as organism-based. Particulars: in vivo.
For data set [12], the system named is PANC-1. The data set is described as follows: Antimigratory activity against MYOF-knockout human PANC1 cells measured after 18 hrs in presence of mitomycin C using crystal violet staining by inverted microscopy-based transwell assay. Format: functional, cell-based.
A short description of data set [13]: Toxicity in Balb/c nude mouse xenografted with PANC1 cells assessed as pathological changes in liver at 25 to 50 mg/kg/day, ip by H and E staining-based microscopic analysis. Format: organism-based. Particulars: in vivo.
For a further data set, the target named is T1, Cytochrome P450 1A2 (Homo sapiens, UniProt P05177).
T1 sequence (P05177 whole entry): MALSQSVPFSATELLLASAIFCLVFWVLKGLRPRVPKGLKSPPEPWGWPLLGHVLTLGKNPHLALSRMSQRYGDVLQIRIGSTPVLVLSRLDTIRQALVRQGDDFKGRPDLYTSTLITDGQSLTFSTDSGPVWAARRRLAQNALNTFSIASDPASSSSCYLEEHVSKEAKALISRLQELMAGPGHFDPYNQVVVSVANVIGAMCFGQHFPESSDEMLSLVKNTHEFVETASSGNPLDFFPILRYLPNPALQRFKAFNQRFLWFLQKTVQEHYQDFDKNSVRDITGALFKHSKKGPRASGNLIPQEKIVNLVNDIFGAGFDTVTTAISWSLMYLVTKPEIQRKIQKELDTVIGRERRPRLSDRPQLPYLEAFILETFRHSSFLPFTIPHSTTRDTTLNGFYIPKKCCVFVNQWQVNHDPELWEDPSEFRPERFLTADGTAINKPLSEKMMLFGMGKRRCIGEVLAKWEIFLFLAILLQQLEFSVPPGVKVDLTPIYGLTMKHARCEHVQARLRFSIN
Put plainly: Inhibition of CYP1A2 in human liver microsomes using phenacetin as substrate preincubated for 5 mins followed by NADPH-generating system addition and measured after 20 mins by LC-MS/MS analysis.

Data set [14] in a line: Toxicity in Balb/c nude mouse xenografted with PANC1 cells assessed as pathological changes in heart at 25 to 50 mg/kg/day, ip by H and E staining-based microscopic analysis. The conditions noted are these: in vivo. It is filed as organism-based.
In data set [15] the test system is PANC-1. Put plainly: Antimigratory activity against MYOF-knockout human PANC1 cells transfected with pcDNA3.1-MYOF measured after 18 hrs in presence of mitomycin C using crystal violet staining by inverted microscopy-based transwell assay. Format: functional, cell-based.
Data set [16] deals with PANC-1. Put plainly: Cytotoxicity against human PANC1 cells assessed as reduction in cell viability measured after 48 hrs by MTS assay. It is filed as cell-based. Particulars: PANC-1, 48 h.
Data set [17] relates to PANC-1. The data set is described as follows: Effect on Snail1 expression in human PANC1 cells up to 400 nM by Western blot analysis. It is filed as functional, cell-based.

Chain of Vascular endothelial growth factor receptor 2 (Homo sapiens) (P35968 whole entry): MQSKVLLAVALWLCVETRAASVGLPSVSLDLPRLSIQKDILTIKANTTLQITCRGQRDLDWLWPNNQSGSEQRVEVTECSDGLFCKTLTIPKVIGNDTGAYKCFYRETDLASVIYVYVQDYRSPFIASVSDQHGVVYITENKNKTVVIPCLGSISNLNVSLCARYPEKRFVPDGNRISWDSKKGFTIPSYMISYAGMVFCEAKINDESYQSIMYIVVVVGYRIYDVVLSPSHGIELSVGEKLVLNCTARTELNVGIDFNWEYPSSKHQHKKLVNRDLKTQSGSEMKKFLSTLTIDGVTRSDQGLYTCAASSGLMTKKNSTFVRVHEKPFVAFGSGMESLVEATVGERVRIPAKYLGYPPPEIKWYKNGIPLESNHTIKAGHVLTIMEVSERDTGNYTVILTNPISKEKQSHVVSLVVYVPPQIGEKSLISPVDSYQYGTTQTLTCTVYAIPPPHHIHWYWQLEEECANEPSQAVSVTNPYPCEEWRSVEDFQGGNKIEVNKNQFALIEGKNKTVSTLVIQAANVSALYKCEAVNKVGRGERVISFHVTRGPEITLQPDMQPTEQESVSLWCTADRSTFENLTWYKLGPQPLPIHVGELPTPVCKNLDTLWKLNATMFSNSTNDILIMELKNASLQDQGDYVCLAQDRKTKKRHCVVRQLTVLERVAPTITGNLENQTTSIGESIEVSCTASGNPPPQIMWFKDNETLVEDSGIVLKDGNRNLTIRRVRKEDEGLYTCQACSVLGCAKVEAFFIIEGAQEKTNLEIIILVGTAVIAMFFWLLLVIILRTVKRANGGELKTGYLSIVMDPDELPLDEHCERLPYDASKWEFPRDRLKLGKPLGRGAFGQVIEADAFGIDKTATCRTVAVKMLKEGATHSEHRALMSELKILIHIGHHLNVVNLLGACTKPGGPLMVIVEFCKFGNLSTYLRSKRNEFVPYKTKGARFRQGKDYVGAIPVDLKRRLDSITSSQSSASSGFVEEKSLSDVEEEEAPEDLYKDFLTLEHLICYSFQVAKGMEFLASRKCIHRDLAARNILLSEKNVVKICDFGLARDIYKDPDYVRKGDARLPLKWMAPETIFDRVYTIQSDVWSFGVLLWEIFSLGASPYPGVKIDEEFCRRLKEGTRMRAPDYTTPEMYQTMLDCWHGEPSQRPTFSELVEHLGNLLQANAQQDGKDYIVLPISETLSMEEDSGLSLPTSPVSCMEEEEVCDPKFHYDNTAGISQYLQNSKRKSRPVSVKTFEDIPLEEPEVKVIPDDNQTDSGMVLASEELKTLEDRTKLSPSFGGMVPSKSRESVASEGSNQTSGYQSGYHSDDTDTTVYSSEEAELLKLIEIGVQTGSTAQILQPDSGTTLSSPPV

Turning to `CCc1nc(-c2ncc(OC)cn2)n(-c2cccc(C(=O)NCCCCc3ccccc3)c2)n1`, the IC50 in [1] was 8540 nM; with PANC-1 [2] (PANC-1, 18 h), 110 nM; in [6], 14600 nM; in the data set on Capan-2, 2850 nM; on Cytochrome P450 1A2, more than 50000 nM; with PANC-1 [16], 840 nM. Further, the Activity entry in the data set on PANC-1 [2] was “Dose-dependent effect”; in data set [5] it was “Non-Toxic”; in the data set with MIA PaCa-2, “Dose-dependent effect”; in data set [11], “Non-Toxic”; in [13], “Non-Toxic”; in data set [14], “Non-Toxic”. For the same compound, in the data set with PANC-1 [3], the survival at 50 mg/kg/day was determined as 87.5%. In addition, the “fold change (FC)” value is 5 with PANC-1 [4] and 3 in the data set on PANC-1 [10]. Also, the result (in [7]; with PANC-1 [8]; in the data set with PANC-1 [9]; with PANC-1 [12]; with PANC-1 [17]) was inactive. In addition, the result in the data set with PANC-1 [15] was Active.

These data come from ChEMBL document CHEMBL4304741, “Modification and Biological Evaluation of a Series of 1,5-Diaryl-1,2,4-triazole Compounds as Novel Agents against Pancreatic Cancer Metastasis through Targeting Myoferlin” (J Med Chem, 2019).
